Data as given in paper PMC9947975, “Design, Synthesis, and Biological Evaluation Studies of Novel Naphthalene-Chalcone Hybrids As Antimicrobial, Anticandidal, Anticancer, and VEGFR-2 Inhibitors” (ACS Omega, 2023).
≈ marks a conversion by molar mass, not a printed value. Where “and” joins values, the source holds several entries; their conditions need not be identical. Equal entries are not always repeated.

What was measured:
B. subtilis (ATCC 6051) = test: Antibacterial activity, MIC50 by resazurin fluorometric measurement; type: cell-based; conditions: Bacillus subtilis, ATCC6051; means of triplicate assays
Protocol: (§1) Obtained compounds (2a–2j) were evaluated for antibacterial activity against Escherichia coli (E. coli) (ATCC 25922), Pseudomonas aeruginosa (P. aeruginosa) (ATCC 27853), […] (E. faecalis) (ATCC 2942), Bacillus subtilis (B. subtilis) (ATCC 6051), Staphylococcus aureus (S. aureus) (ATCC 29213), and Staphylococcus epidermidis (S. epidermidis) (ATCC 12228). MIC50 values were determined via fluorometric measurements, using resazurin solution.[13] Azithromycin was used as a standard drug in the antibacterial activity test.
(§2) The antimicrobial activity of obtained derivatives (2a–2j) was screened on six bacterial and three fungal strains according to the standard procedure of CLSI[20] as described in the previous study.[21] The antibacterial activities of the obtained compounds were screened against B. subtilis (ATCC 6051), E. coli (ATCC 25922), E. faecalis (ATCC 2942), P. aeruginosa (ATCC 27853), S. aureus (ATCC 29213), and S. epidermidis (ATCC 12228). The obtained compounds were evaluated for anticandidal activity against C. albicans (ATCC 24433), C. krusei (ATCC 6258), and C. parapsilopsis (ATCC 22019). For antibacterial activity, azithromycin was utilized as a reference drug, whereas voriconazole and fluconazole were used for anticandidal activity.

[1] = tested on: P. aeruginosa (ATCC 27853); test: as above; type: cell-based; conditions: Pseudomonas aeruginosa, ATCC27853; means of triplicate assays
Protocol: as §1, §2

E. coli (ATCC 25922) = test: as above; type: cell-based; conditions: Escherichia coli, ATCC25922; means of triplicate assays
Protocol: as §1, §2

C. krusei (ATCC 6258) = test: Anticandidal activity, MIC50 by resazurin fluorometric measurement; type: cell-based, Candida krusei
Protocol: (§3) Obtained compounds (2a–2j) were evaluated for anticandidal activity against Candida albicans (C. albicans) (ATCC 24433), Candida krusei (C. krusei) (ATCC 6258), and Candida parapsilopsis (C. parapsilopsis) (ATCC 22019). MIC50 values were determined via fluorometric measurements, using resazurin solution.[13] Voriconazole and fluconazole were used as a standard drug in the anticandidal activity test. […] In general, it is seen that the 2-methoxyethyl substituent increases the anticandidal activity.
as §2

E. faecalis (ATCC 2942) = test: Antibacterial activity, MIC50 by resazurin fluorometric measurement; type: cell-based, Enterococcus faecalis
Protocol: as §1, §2

carcinogenic cell lines [2] = test: Flow cytometric analysis of apoptosis and necrosis (Apoptosis, Necrosis and Healthy Cell Quantitation Kit Plus); type: cell-based; conditions: IC50 concentration, 24-h incubation
From the text: The flow cytometer was used to calculate the percentages of apoptotic and necrotic cells in four different quadrants, which are denoted by the letters “UL, UR, LL, LR” (Upper Left, Upper Right, Lower Left, Lower Right). The four distinct quadrants in the diagram represent the following areas, respectively: Apoptotic or early apoptotic cells, LR: CF488A+/(EthD-III)-; necrotic or late apoptotic cells, […]: CF488A+/(EthD-III)+; intact cells, LL: CF488A/(EthD-III); and dead or necrotic cells, UR: CF488A+/(EthD-III)+. The IC50 concentration of each substance was used in administration.
Death pathway of the carcinogenic cell lines was detected by Apoptosis, Necrosis and Healthy Cell Quantitation Kit Plus (Cat: 30066, Biotium, Hayward, CA, USA)[22] as reported in the manufacturer’s instruction. The IC50 values for doxorubicin and compound 2j were applied. Cells were collected by centrifugation at 1200 rpm for 5 min following a 24-h incubation period. It was washed 2 times with PBS, centrifuged and turned into pellets. One ×10^6 cells/mL of annexin were suspended in V-FITC binding buffer. Ethidium iodide ([…]), Hoestch 1 mL, and annexin V-FITC ([…]) were added to stain cells and using the CytoFLEX Flow Cytometer (Beckman Coulter Life Sciences, USA) and CytExpert for CytoFLEX Acquisition and Analysis Software Version 2.2.0.97 instrument. Fluorescence measurements were made using a flow cytometer in accordance with the instrument procedure.

HepG2 cell line = test: MTT cytotoxicity test; type: cell-based; conditions: Homo sapiens, 24-h treatment, means of quartet assays ± SEM
Protocol: (§4) The MTT test was performed using 3 different cell lines for calculated IC50 values of obtained compounds. […] For this purpose, the cytotoxic effects of the compounds against the healthy mouse fibroblast cell (NIH3T3) were investigated.
(§5) The 3-(4,5-dimethylthiazol-2-yl)-2,5-diphenyltetrazolium salt reduction method, or MTT assay, is used to measure the metabolic activity of live cells. […] Doxorubicin is used as a therapeutic drug. MTT assays were carried out as previously explained.[19]

A549 cell line [3] = test: MTT cytotoxicity test; type: cell-based; conditions: for IC50: MTT, 24-h treatment, means of quartet assays ± SEM
Protocol: as §4, §5

[4] = tested on: S. epidermidis (ATCC 12228); test: Antibacterial activity, MIC50 by resazurin fluorometric measurement; type: cell-based, Staphylococcus epidermidis
Protocol: as §1, §2

VEGFR-2 enzyme = biological target: T1, VEGFR-2 enzyme (Homo sapiens, UniProt P35968); test: VEGFR-2 inhibition assay (VEGFR-2 Kinase Assay Kit); type: biochemical; conditions: serial 11 dilutions, 1000 μM–0.01 μM
T1 construct: purchased
T1 sequence (P35968 20-1356): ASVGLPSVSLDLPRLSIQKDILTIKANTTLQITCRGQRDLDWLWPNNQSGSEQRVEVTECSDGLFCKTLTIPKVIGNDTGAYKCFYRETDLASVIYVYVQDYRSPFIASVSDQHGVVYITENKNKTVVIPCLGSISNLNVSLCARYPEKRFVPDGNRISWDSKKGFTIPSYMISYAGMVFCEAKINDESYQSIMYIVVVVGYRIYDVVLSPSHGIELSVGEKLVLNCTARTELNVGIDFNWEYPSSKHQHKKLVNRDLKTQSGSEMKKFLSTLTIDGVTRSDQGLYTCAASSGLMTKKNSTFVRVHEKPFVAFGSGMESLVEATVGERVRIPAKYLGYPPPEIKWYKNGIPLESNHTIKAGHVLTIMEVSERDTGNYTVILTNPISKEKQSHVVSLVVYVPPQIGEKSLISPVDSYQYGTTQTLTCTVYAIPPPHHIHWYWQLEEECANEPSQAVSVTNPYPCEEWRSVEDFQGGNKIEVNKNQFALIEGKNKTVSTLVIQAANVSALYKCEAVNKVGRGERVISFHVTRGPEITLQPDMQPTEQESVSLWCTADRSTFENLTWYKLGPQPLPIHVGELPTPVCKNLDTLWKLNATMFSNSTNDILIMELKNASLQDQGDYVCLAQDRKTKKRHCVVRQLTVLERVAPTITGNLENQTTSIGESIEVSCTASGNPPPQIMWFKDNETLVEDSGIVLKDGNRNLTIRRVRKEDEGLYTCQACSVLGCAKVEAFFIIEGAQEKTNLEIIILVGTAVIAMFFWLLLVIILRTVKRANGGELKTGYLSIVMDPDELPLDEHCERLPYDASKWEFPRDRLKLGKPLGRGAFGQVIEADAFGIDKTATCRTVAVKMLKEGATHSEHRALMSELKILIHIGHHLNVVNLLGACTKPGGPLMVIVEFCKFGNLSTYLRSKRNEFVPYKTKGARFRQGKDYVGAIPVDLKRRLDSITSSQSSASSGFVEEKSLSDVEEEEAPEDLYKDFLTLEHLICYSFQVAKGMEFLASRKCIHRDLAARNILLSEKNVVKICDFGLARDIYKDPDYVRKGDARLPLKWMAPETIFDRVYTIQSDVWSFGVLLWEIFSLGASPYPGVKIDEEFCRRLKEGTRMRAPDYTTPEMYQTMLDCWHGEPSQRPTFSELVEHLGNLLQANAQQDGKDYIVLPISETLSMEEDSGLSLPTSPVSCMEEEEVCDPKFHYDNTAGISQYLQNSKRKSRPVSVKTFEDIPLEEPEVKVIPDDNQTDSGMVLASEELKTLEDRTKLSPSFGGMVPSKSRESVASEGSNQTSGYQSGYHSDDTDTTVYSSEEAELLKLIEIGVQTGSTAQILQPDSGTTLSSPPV
Protocol: The VEGFR-2 Kinase Assay Kit (Available from ref ([15])) was used for the VEGFR-2 inhibition. The experiment was performed in vitro according to the kit procedure. Serial 11 dilutions of compound 2j were prepared at concentrations of 1000 μM–0.01 μM. The IC50 value for compound 2j was calculated using the kit procedure.
The VEGFR-2 Kinase Assay Kit (available from ref ([15])) was used for the VEGFR-2 inhibition. The experiment was performed in vitro according to the kit procedure.

[5] = tested on: C. parapsilopsis (ATCC 22019); test: Anticandidal activity, MIC50 by resazurin fluorometric measurement; type: cell-based, Candida parapsilopsis; conditions: Candida, ATCC22019; means of triplicate assays
Protocol: as §3, §2

[6] = tested on: healthy mouse fibroblast cell (NIH3T3); test: MTT cytotoxicity test on healthy cells; type: cell-based; conditions: 24-h treatment, means of quartet assays ± SEM
Protocol: as §4, §5

carcinogenic cell lines [7] = test: Flow cytometric analysis of apoptosis and necrosis (Apoptosis, Necrosis and Healthy Cell Quantitation Kit Plus); type: cell-based; conditions: IC50 concentration, 24-h incubation; remark: listed apart in the source
C. albicans (ATCC 24433) = test: Anticandidal activity, MIC50 by resazurin fluorometric measurement; type: cell-based, Candida albicans
Protocol: as §3, §2

A549 cell line [8] = test: Analysis of mitochondrial membrane potential (MMP) by flow cytometry, JC-1 dye; type: cell-based; conditions: A549, IC50 concentration, 24-h incubation
Protocol: After a 24-h incubation period, mitochondrial membrane potential was measured with JC-1 dye.
The BD Mitoscreen Mitochondrial Membrane Potential Detection JC-1 Kit (available from ref ([23])) was used for the MMP test. First, A549 cells were seeded in 25 mL flasks and incubated for 24 h in a 5% CO2 incubator. […] At the end of this period, cells were collected and centrifuged in accordance with the kit contents. After the upper part was removed, JC-1 dye was added and incubated at 37 °C for 10–15 min. At the end of the period, it was washed 2 times with washing solution and reading was done with the appropriate procedure using the CytoFLEX Flow Cytometer (Beckman Coulter Life Sciences, USA) and CytExpert for CytoFLEX Acquisition and Analysis Software Version 2.2.0.97.

S. aureus (ATCC 29213) = test: Antibacterial activity, MIC50 by resazurin fluorometric measurement; type: cell-based, Staphylococcus aureus
Protocol: as §1, §2

Which MIC50 (B. subtilis (ATCC 6051)) does the source give for COCCN1CCN(c2ccc(C(=O)C=Cc3ccc4ccccc4c3)cc2)CC1 [2j, 1-(4-(4-(2-Methoxyethyl)piperazin-1-yl)phenyl)-3-(naphthalen-2-yl)prop-2-en-1-one] here?
The MIC50 was greater than 100 µg/mL.

What about the MIC50 [1] of the same molecule?
The MIC50 was 62.5 µg/mL (≈ 156 µM).

What about the MIC50 (E. coli (ATCC 25922)) of the same molecule?
The MIC50 was greater than 100 µg/mL.

And the MIC50 (C. krusei (ATCC 6258); Pichia kudriavzevii, ATCC6258, means of triplicate assays)?
The MIC50 was 15.6 µg/mL (≈ 39 µM).

What about the “MIC50 C. krusei” value (C. krusei (ATCC 6258); means of triplicate assays) of the same molecule?
The value was 15.6 µg/mL (≈ 38.9 µM).

What about the MIC50 (E. faecalis (ATCC 2942); Enterococcus faecalis, ATCC2942, means of triplicate assays) of the same molecule?
The MIC50 was 15.6 µg/mL (≈ 38.9 µM).

And the “MIC50 E. faecalis” value (E. faecalis (ATCC 2942); means of triplicate assays)?
Its value is 15.7 µg/mL (≈ 39.2 µM).

What about the “early apoptosis (Q1-LR)” value (carcinogenic cell lines [2]) of the same molecule?
Its value is 3.97%.

What about the “intact cells (Q1-LL)” value (carcinogenic cell lines [2]) of the same molecule?
Its value is 67.71%.

What about the “necrosis (Q1-UL)” value (carcinogenic cell lines [2]) of the same molecule?
The value was 18.06% and 18.1%.

What about the “rate of apoptosis (early + late apoptosis)” value (carcinogenic cell lines [2]) of the same molecule?
The value was 14.230% and 14.2%.

What about the IC50 (HepG2 cell line) of the same molecule?
Its IC50 is 38.9 ± 1.34 µM.

And the IC50 (A549 cell line [3]; Homo sapiens, A549, 24 h)?
Its IC50 is less than 10 µM.

And the IC50 (A549 cell line [3])?
The IC50 was 7.8 µM and 7.83 µM.

What about the “selectivity index (IC50 value vs healthy cell/IC50 value vs cancer cell)” value (A549 cell line [3]; NIH3T3 vs A549 cell line) of the same molecule?
Its value is 1.990.

What about the MIC50 ([4]; Staphylococcus epidermidis, ATCC12228, means of triplicate assays, read-out: MIC50 S. epidermis) of the same molecule?
The MIC50 was 31.2 µg/mL (≈ 78 µM).

What about the “MIC50 S. epidermis” value ([4]; means of triplicate assays) of the same molecule?
The value was 31.3 µg/mL (≈ 78.1 µM).

What about the IC50 (VEGFR-2 enzyme) of the same molecule?
Its IC50 is 98 ± 5 nM.

And the MIC50 [5]?
The MIC50 was greater than 100 µg/mL.

And the IC50 [6]?
Its IC50 is 15.6 ± 0.75 µM.

What about the “late apoptosis (Q1-UR)” value (carcinogenic cell lines [7]) of the same molecule?
The value was 10.26% and 10.3%.

What about the MIC50 (C. albicans (ATCC 24433); Candida albicans, ATCC24433, means of triplicate assays) of the same molecule?
The MIC50 was 15.6 µg/mL (≈ 39 µM).

And the “MIC50 C. albicans” value (C. albicans (ATCC 24433); means of triplicate assays)?
The value was 15.6 µg/mL (≈ 38.9 µM).

And the “mitochondrial membrane potential (P3)” value (A549 cell line [8])?
The value was 58.870%.

What about the MIC50 (S. aureus (ATCC 29213); Staphylococcus aureus, ATCC29213, means of triplicate assays) of the same molecule?
Its MIC50 is 31.2 µg/mL (≈ 78 µM).

What about the “MIC50 S. aureus” value (S. aureus (ATCC 29213); means of triplicate assays) of the same molecule?
The value was 31.3 µg/mL (≈ 78.1 µM).
